Data as given in patent US20250163104A1, “MACROCYCLIC IMMUNOMODULATORS” (priority 2021, published 2025).
Where a SMILES comes first, the peptide text is derived from it. Bridges are numbered along the chain shown (N, C = ends). [ ]: non-standard residue; d: D form. The star is where a group is joined. ξ: configuration not given here. Phe(4-COOH) = N[C@@H](Cc1ccc(C(=O)O)cc1)C(=O)O; Bip = N[C@@H](Cc1ccc(-c2ccccc2)cc1)C(=O)O; Phe(3-Me) = Cc1cccc(C[C@H](N)C(=O)O)c1; Gly(cPent) = N[C@H](C(=O)O)C1CCCC1; ξW = NC(Cc1c[nH]c2ccccc12)C(=O)O; 4Pal = N[C@@H](Cc1ccncc1)C(=O)O; 2Thi = N[C@@H](Cc1cccs1)C(=O)O; Cha = N[C@@H](CC1CCCCC1)C(=O)O; Cit = NC(=O)NCCC[C@H](N)C(=O)O; Carboxymethyl = O=C(O)C*; Orn = NCCC[C@H](N)C(=O)O; Dab = NCC[C@H](N)C(=O)O; Dap = NC[C@H](N)C(=O)O

What follows are compounds tested against T1, human PD-1 / PD-L1-Ig binding on Jurkat cell line over-expressing human PD-1 (Jurkat-PD-1) (Homo sapiens, UniProt Q15116) (assay: Jurkat-PD-1 Cell Binding High-Content Screening Assay (CBA)). Conditions: Jurkat HPD1_PDL1 IC50, Jurkat-PD-1 cells, PE-labeled PD-L1-Ig 20 nM final.
T1 construct: expressed in transfected cells; host or cells: Jurkat
T1 sequence (Q15116 25-288): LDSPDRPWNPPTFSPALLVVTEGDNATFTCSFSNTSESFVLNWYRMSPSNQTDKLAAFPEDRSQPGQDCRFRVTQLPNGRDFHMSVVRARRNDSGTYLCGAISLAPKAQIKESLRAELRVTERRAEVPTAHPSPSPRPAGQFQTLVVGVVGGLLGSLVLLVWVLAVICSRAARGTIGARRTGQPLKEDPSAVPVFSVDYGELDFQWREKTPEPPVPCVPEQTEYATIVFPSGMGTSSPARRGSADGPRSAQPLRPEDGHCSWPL
Format: cell-based
Summary of the method: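 Read-out: high-content imaging of PE-tagged PD-L1-Ig bound to Jurkat cells overexpressing human PD-1, after fixation with 4% paraformaldehyde and Hoechst 33342 nuclear staining. Ligand was used at 20 nM final for 1 hour, after a 2 h compound exposure at 37° C in serum-containing DMEM.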

SMILES	IC50
CC[C@H](C)[C@@H]1NC(=O)[C@H](Cc2ccc(-c3ccccc3)cc2)NC(=O)[C@H](C(C)C)NC(=O)[C@H](Cc2c[nH]c3ccccc23)NC(=O)[C@H](CC(=O)O)NC(=O)[C@H](Cc2ccc(OCC(=O)O)cc2)NC(=O)[C@H](Cc2ccc(OCC(=O)O)cc2)NC(=O)CSC[C@@H](C(=O)N[C@@H](C)C(N)=O)NC(=O)[C@H]([C@@H](C)O)NC(=O)[C@H](C(C)C)NC(=O)[C@H](CC2CCCCC2)NC(=O)[C@H](Cc2c[nH]cn2)NC(=O)[C@@H](CC(C)C)NC(=O)[C@H](CCCN)NC1=O [Compound 1592]	31.5 nM

Same assay, conditions: Jurkat-PD-1 cells, PE-labeled PD-L1-Ig 20 nM final; read-out: Jurkat HPD1_PDL1 IC50

SMILES	IC50
CCC[C@@H]1NC(=O)[C@H](Cc2ccc(-c3ccccc3)cc2)NC(=O)[C@H](C(C)C)NC(=O)[C@H](Cc2c[nH]c3ccccc23)NC(=O)[C@H](CC(=O)O)NC(=O)[C@H](Cc2ccc(C(=O)O)cc2)NC(=O)[C@H](Cc2ccncc2)NC(=O)CSC[C@@H](C(=O)N[C@@H](C)C(N)=O)NC(=O)[C@H]([C@@H](C)O)NC(=O)[C@H](C(C)C)NC(=O)[C@H](CC2CCCCC2)NC(=O)[C@H](Cc2cnc[nH]2)NC(=O)[C@@H](CC(C)C)NC(=O)[C@H](CCCN)NC1=O [Compound 1623]	27 nM
CC(C)C[C@@H]1NC(=O)[C@H](Cc2c[nH]c3ccccc23)NC(=O)[C@H](CC(=O)O)NC(=O)[C@H](Cc2ccc(O)cc2)NC(=O)[C@H](Cc2ccccc2)NC(=O)CSC[C@@H](C(=O)NCC(N)=O)NC(=O)[C@H](CO)NC(=O)[C@H](C(C)C)NC(=O)[C@H](CC(C)C)NC(=O)[C@H](CC(N)=O)NC(=O)[C@@H](CC(C)C)NC(=O)[C@H](CCN)NC(=O)[C@H](C(C)C)NC(=O)[C@H](Cc2ccc(-c3ccccc3)cc2)NC1=O [Compound 1059] ({CH2CO}-FYDWL[Bip]V[Dab][dL]NLVSCG-NH2; thioether N-14)	28.5 nM
CC(C)C[C@@H]1NC(=O)[C@H](CC2CCCCC2)NC(=O)[C@H](CCN)NC(=O)[C@@H](CC(C)C)NC(=O)[C@H](CCCN)NC(=O)[C@H](CCCNC(N)=O)NC(=O)[C@H](Cc2ccc(-c3ccccc3)cc2)NC(=O)[C@H](C(C)C)NC(=O)[C@H](Cc2c[nH]c3ccccc23)NC(=O)[C@H](CC(=O)O)NC(=O)[C@H](Cc2ccc(OCC(=O)O)cc2)NC(=O)[C@H](CN)NC(=O)CSC[C@@H](C(=O)N[C@@H](C)C(N)=O)NC(=O)[C@H]([C@@H](C)O)NC1=O [Compound 1322] ({CH2CO}-[Dap]Y(Carboxymethyl)DWV[Bip][Cit][Orn][dL][Dab][Cha]LTCA-NH2; thioether N-14)	21.3 nM
CC(C)C[C@@H]1NC(=O)C(Cc2c[nH]c3ccccc23)NC(=O)[C@H](CC(=O)O)NC(=O)[C@H](Cc2ccc(O)cc2)NC(=O)[C@H](Cc2ccccc2)NC(=O)CSC[C@@H](C(=O)N[C@@H](C)C(N)=O)NC(=O)[C@H](CO)NC(=O)[C@H](C(C)C)NC(=O)[C@H](CC(C)C)NC(=O)[C@H](CC(N)=O)NC(=O)[C@@H](CC(C)C)NC(=O)[C@H](CN)NC(=O)[C@H](CCCNC(N)=O)NC(=O)[C@H](Cc2ccc(-c3ccccc3)cc2)NC1=O (stereo partly drawn) [Compound 1217] ({CH2CO}-FYD[ξW]L[Bip][Cit][Dap][dL]NLVSCA-NH2; thioether N-14)	25.4 nM
CC(C)C[C@H]1NC(=O)[C@H](CCCN)NC(=O)[C@H](CCC(=O)O)NC(=O)[C@H](Cc2ccc(-c3ccccc3)cc2)NC(=O)[C@H](C(C)C)NC(=O)[C@H](Cc2c[nH]c3ccccc23)NC(=O)[C@H](CC(=O)O)NC(=O)[C@H](Cc2ccc(-c3cccc(C(=O)O)c3)cc2)NC(=O)[C@H](CN)NC(=O)CSC[C@@H](C(=O)N[C@@H](C)C(N)=O)NC(=O)[C@H]([C@@H](C)O)NC(=O)[C@H](C(C)C)NC(=O)[C@H](CC2CCCCC2)NC(=O)[C@H](CCN)NC1=O [Compound 2166]	22.7 nM

More lines, now with the values ahead:

IC50	SMILES
21.3 nM	CCC(C)[C@@H]1NC(=O)[C@H](Cc2ccc(-c3ccccc3)cc2)NC(=O)[C@H](C(C)C)NC(=O)[C@H](Cc2cccc(C)c2)NC(=O)[C@H](CC(=O)O)NC(=O)[C@H](Cc2ccc(OCC(=O)O)cc2)NC(=O)[C@H](Cc2ccc(OCC(=O)O)cc2)NC(=O)CSC[C@@H](C(=O)N[C@@H](C)C(N)=O)NC(=O)[C@H](CO)NC(=O)[C@H](C(C)C)NC(=O)[C@H](CC2CCCCC2)NC(=O)[C@H](CCN)NC(=O)[C@@H](CC(C)C)NC(=O)[C@H](CCCN)NC1=O (stereo partly drawn) [Compound 2534]
9.7 nM	CC(C)C[C@H]1NC(=O)[C@H](CCCN)NC(=O)[C@H](CCC(=O)O)NC(=O)[C@H](Cc2ccc(-c3ccccc3)cc2)NC(=O)[C@H](C(C)C)NC(=O)[C@H](Cc2c[nH]c3ccccc23)NC(=O)[C@H](CC(=O)O)NC(=O)[C@H](Cc2ccc(C(=O)O)cc2)NC(=O)[C@H](Cc2ccc(OCC(=O)O)cc2)NC(=O)CSC[C@@H](C(=O)N[C@@H](C)C(N)=O)NC(=O)[C@H]([C@@H](C)O)NC(=O)[C@H](C(C)C)NC(=O)[C@H](CC2CCCCC2)NC(=O)[C@H](CCN)NC1=O [Compound 1427]
18.2 nM	CC(C)C[C@H]1NC(=O)[C@H](CCCN)NC(=O)[C@H](CCC(=O)O)NC(=O)[C@H](Cc2ccc(-c3ccccc3)cc2)NC(=O)[C@H](C(C)C)NC(=O)[C@H](Cc2cccs2)NC(=O)[C@H](CC(=O)O)NC(=O)[C@H](Cc2ccncc2)NC(=O)[C@H](Cc2ccncc2)NC(=O)CSC[C@@H](C(=O)N[C@@H](C)C(N)=O)NC(=O)[C@H]([C@@H](C)O)NC(=O)[C@H](C(C)C)NC(=O)[C@H](CC2CCCCC2)NC(=O)[C@H](CCN)NC1=O [Compound 2203] ({CH2CO}-[4Pal][4Pal]D[2Thi]V[Bip]E[Orn][dL][Dab][Cha]VTCA-NH2; thioether N-14)
7.1 nM	CC(C)C[C@H]1NC(=O)[C@H](CCCN)NC(=O)[C@H](CCCNC(N)=O)NC(=O)[C@H](Cc2ccc(-c3ccccc3)cc2)NC(=O)[C@H](C2CCCC2)NC(=O)[C@H](Cc2c[nH]c3ccccc23)NC(=O)[C@H](CC(=O)O)NC(=O)[C@H](Cc2ccc(OCC(=O)O)cc2)NC(=O)[C@H](CN)NC(=O)CSC[C@@H](C(=O)N[C@@H](C)C(N)=O)NC(=O)[C@H]([C@@H](C)O)NC(=O)[C@H](C(C)C)NC(=O)[C@H](CC2CCCCC2)NC(=O)[C@H](CCN)NC1=O [Compound 1368] ({CH2CO}-[Dap]Y(Carboxymethyl)DW[Gly(cPent)][Bip][Cit][Orn][dL][Dab][Cha]VTCA-NH2; thioether N-14)
5.2 nM	COc1cccc(C[C@@H]2NC(=O)[C@H](CC(=O)O)NC(=O)[C@H](Cc3ccc(OCC(=O)O)cc3)NC(=O)[C@H](Cc3ccc(OCC(=O)O)cc3)NC(=O)CSC[C@@H](C(=O)N[C@@H](C)C(N)=O)NC(=O)[C@H]([C@@H](C)O)NC(=O)[C@H](C(C)C)NC(=O)[C@H](CC3CCCCC3)NC(=O)[C@H](CCN)NC(=O)[C@@H](CC(C)C)NC(=O)[C@H](CCCN)NC(=O)[C@H](CCC(=O)O)NC(=O)[C@H](Cc3ccc(-c4ccccc4)cc3)NC(=O)[C@H](C(C)C)NC2=O)c1 [Compound 1504]
5.4 nM	Cc1cccc(C[C@@H]2NC(=O)[C@H](CC(=O)O)NC(=O)[C@H](Cc3ccc(C(=O)O)cc3)NC(=O)[C@H](CN)NC(=O)CSC[C@@H](C(=O)N[C@@H](C)C(N)=O)NC(=O)[C@H]([C@@H](C)O)NC(=O)[C@H](C(C)C)NC(=O)[C@H](CC(C)C)NC(=O)[C@H](CCN)NC(=O)[C@@H](CC(C)C)NC(=O)[C@H](CCCN)NC(=O)[C@H](C(C)C)NC(=O)[C@H](Cc3ccc(-c4ccccc4)cc3)NC(=O)[C@H](C(C)C)NC2=O)c1 [Compound 1219] ({CH2CO}-[Dap][Phe(4-COOH)]D[Phe(3-Me)]V[Bip]V[Orn][dL][Dab]LVTCA-NH2; thioether N-14)
